Test [1] relates to CD8+ T cells. Put plainly: In vitro priming of CD8+ T cells with pMHC/anti-CD28 coated beads, multimer staining readout. The test is classed as cell-based, human. Conditions: HLA-A*24 healthy donors, three stimulations, A*2402 multimer+ CD8+. The source says: In order to perform in vitro stimulations by artificial antigen presenting cells (aAPC) loaded with peptide-MHC complex (pMHC) and anti-CD28 antibody, we first isolated CD8 T cells from fresh HLA-A*24 leukapheresis products of healthy donors obtained from the Blood Bank Tuebingen.
CD8 T cells were either directly enriched from the leukapheresis product or PBMCs (peripheral blood mononuclear cells) were isolated first by using standard gradient separation medium (PAA, Cölbe, Germany). Isolated CD8 lymphocytes or PBMCs were incubated until use in T-cell medium (TCM) consisting of RPMI-Glutamax (Invitrogen, Karlsruhe, Germany) supplemented with 10% heat inactivated human AB serum (PAN-Biotech, Aidenbach, Germany), 100 U/ml Penicillin/100 μg/ml Streptomycin (Cambrex, Cologne, Germany), 1 mM sodium pyruvate (CC Pro, Oberdorla, Germany), 20 μg/ml Gentamycin (Cambrex). […] Isolation of CD8+ lymphocytes was performed by positive selection using CD8 MicroBeads (Miltenyi Biotec, Bergisch-Gladbach, Germany).
800.000 beads/200 μl were coated in 96-well plates in the presence of 600 ng biotin anti-CD28 plus 200 ng relevant biotin-pMHC (high density beads). Stimulations were initiated in 96-well plates by co-incubating 1×10^6 CD8+ T cells with 2×10^5 washed coated beads in 200 μl TCM supplemented with 5 ng/ml IL-12 (PromoCell) for 3-4 days at 37° C. Half of the medium was then exchanged by fresh TCM supplemented with 80 U/ml IL-2 and incubating was continued for 3-4 days at 37° C. This stimulation cycle was performed for a total of three times. […] For analysis, a BD LSRII SORP cytometer equipped with appropriate lasers and filters was used. Peptide specific cells were calculated as percentage of total CD8+ cells. Evaluation of multimeric analysis was done using the FlowJo software (Tree Star, Oregon, USA). In vitro priming of specific multimer+ CD8+ lymphocytes was detected by appropriate gating and by comparing to negative control stimulations.

Test [2] has as its system anti-survivin T-cell response. Put plainly: Phase I/II vaccination study, T cell response (IFN-g ELISPOT, +/-ICS). The test is classed as in vivo, human.
For test [3], the system named is HLA-DR broad antigens (HLA-DR1 to DR7). The experiment in a line: ProImmune REVEAL MHC:peptide in vitro binding assay. Further details: species or system human. To be noted: HLA-DR1, 3, 4 and 11; result in words. The protocol:
The ProImmune REVEAL™ technology employs in vitro HLA-DR assembly assays to determine the on-rates for the MHC:peptide complex as one major determinant of the binding constant of individual peptides. The assay was performed by ProImmune (Oxford, UK). At a fixed time point, the amount of intact MHC:peptide complexes is measured and compared with the amount for a pass/fail control (relative weak binder). A strong, promiscuous HLA-DR binder is included as positive control. Values indicate amount of binding for the individual peptides and HLA-DR molecules relative to the pass/fail control.
In this assay, binding was compared to that of a pass/fail control binder, and to a positive control peptide for each HLA-DR antigen.

“SYIIDPLNL (listed as Homo sapiens) [PROM1-001]”: in test [1], the “Positive donors/donors tested [%]” value is 83% and the “Positive wells/wells tested [%]” value worked out at 26%.

As for “RFLSGIINF (listed as Homo sapiens) [NUF2-002]”, in test [1], the “Positive donors/donors tested [%]” value was 50% and the “Positive wells/wells tested [%]” value is recorded as 4%.

With “HYKPTPLYF (listed as Homo sapiens) [SMC4-001]”, in test [1], the “Positive donors/donors tested [%]” value was 75% and the “Positive wells/wells tested [%]” value stood at 9%.

“SYNPLWLRI (listed as Homo sapiens) [ASPM-002]”: in test [1], the “Positive donors/donors tested [%]” value amounted to 63% and the “Positive wells/wells tested [%]” value stood at 31%.

“VYIEKNDKL (listed as Homo sapiens) [ERBB3-001]”: in test [1], the “Positive donors/donors tested [%]” value stood at 83% and the “Positive wells/wells tested [%]” value is reported as 15%.

“TLGEFLKLDRERAKN (listed as Homo sapiens) [IMA-BIR-002]”: in test [2] (among the 16 reacting patients), the “patients with induction of an anti-survivin T-cell response upon vaccination” value is given as 12. Besides, the “patients who reacted to the peptide (IFN-g ELISPOT, +/-ICS)” value in test [2] (of the 19 patients, prostate carcinoma, s.c. vaccination) is given as 16. Besides, the “in vitro binding to HLA-DR” value in test [3] is “promiscuous binding”.

“LYQILQGIVF (listed as Homo sapiens) [CDC2-001]”: in test [1], the “Positive donors/donors tested [%]” value amounted to 88% and the “Positive wells/wells tested [%]” value is 28%.

As to “VYGIRLEHF (listed as Homo sapiens) [NUF2-001]”, in test [1], the “Positive donors/donors tested [%]” value was 100% and the “Positive wells/wells tested [%]” value was 25%.

With “NYLPFIMEL (listed as Homo sapiens) [UCHL5-001]”, in test [1], the “Positive donors/donors tested [%]” value came out at 75% and the “Positive wells/wells tested [%]” value was 14%.

Turning to “TYGNLLDYL (listed as Homo sapiens) [ABL1-001]”, in test [1], the “Positive donors/donors tested [%]” value amounted to 50% and the “Positive wells/wells tested [%]” value worked out at 13%.

For “FYISPVNKL (listed as Homo sapiens) [AVL9-001]”, in test [1], the “Positive donors/donors tested [%]” value was found to be 100% and the “Positive wells/wells tested [%]” value came to 50%.

“NYLLYVSNF (listed as Homo sapiens) [MST1R-001]”: in test [1], the “Positive donors/donors tested [%]” value turned out to be 50% and the “Positive wells/wells tested [%]” value stood at 14%.

“YYNAAGFNKL (listed as Homo sapiens) [UQCRB-001]”: in test [1], the “Positive donors/donors tested [%]” value amounted to 100% and the “Positive wells/wells tested [%]” value was found to be 38%.

Regarding “VWSDVTPLTF (listed as Homo sapiens) [MMP11-001]”, in test [1], the “Positive donors/donors tested [%]” value amounted to 33% and the “Positive wells/wells tested [%]” value worked out at 11%.

As to “AYLVYTDRL (listed as Homo sapiens) [PPAP2C-001]”, in test [1], the “Positive donors/donors tested [%]” value came out at 100% and the “Positive wells/wells tested [%]” value worked out at 54%.

For the sequence “SYIDVLPEF (listed as Homo sapiens) [MET-006]”, in test [1], the “Positive donors/donors tested [%]” value was 63% and the “Positive wells/wells tested [%]” value is reported as 22%.

The values are drawn from patent US9132177B2, “Composition of tumor-associated peptides and related anti-cancer vaccine for the treatment of gastric cancer and other cancers” (priority 2010, dated 2015).
